Laboratory results as given in PMC11613437, “Prioritization of Eleven-Nineteen-Leukemia Inhibitors as Orally Available Drug Candidates for Acute Myeloid Leukemia” (Journal of Medicinal Chemistry, 2024).

How the values were obtained:
[1] = Body weight of xenografted NSG mice under treatment; type: in vivo
Source text: Animal studies were approved by the Texas A&M’s Institutional Animal Care and Use Committees. The 5 week-old female NSG mice (NOD.Cg-PrkdcscidIl2rgtm1Wjl/SzJ, Jackson Laboratory #005557) were ordered and kept under pathogen-free conditions for 1 week with free access to food and water after arrival for acclimation. Tumor models in these mice were then built by engrafting 1 × 10^6 MOLM-13-Luc cells (BPS Bioscience, 78372) through tail vein injection. Tumors were allowed to grow for 6 days, and then applied for treatment by oral gavage daily (day 0 was the beginning of treatment). Dosage of 200 or 400 mg/kg (vehicle of 5% DMSO, 45% PEG400, 2.5% Tween 80, and 47.5% water) was applied. Tumor growth was evaluated by bioluminescent imaging (BLI) using an IVIS In Vivo Imaging System by intraperitoneal injection of 150 mg/kg D-Luciferin potassium salt (MedChemExpress, HY-12591B). Their body weights were recorded every 2–3 days. Surviving mice were counted every day and the mortality was calculated. No animal was excluded from any of the analyses. The investigators were not blinded to allocation during experiments and outcome assessment.

ENL YEATS domain = target: T1, ENL YEATS domain (Homo sapiens, UniProt Q03111); test: Biolayer interferometry (BLI); type: binding; conditions: biotinylated ENL YEATS on SSA biosensors, 1:1 model
T1 construct: Biotinylated-ENL YEATS was immobilized onto SSA biosensors; biotin (biotinylated)
T1 sequence (Q03111 1-138 limits assumed): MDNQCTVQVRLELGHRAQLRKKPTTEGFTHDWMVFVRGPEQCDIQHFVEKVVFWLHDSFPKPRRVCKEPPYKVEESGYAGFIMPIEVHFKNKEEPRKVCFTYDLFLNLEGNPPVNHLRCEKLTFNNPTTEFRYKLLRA
Method: Superstreptavidin biosensors were first incubated in an assay buffer (20 mM Tris, pH 7.8, 300 mM NaCl, 0.05% Tween 20, 0.1% DMSO) for 15 min. Sensors were coated with 40–60 μg/mL of biotinylated ENL for 15 min at room temperature. Inhibitors were serially diluted across a 96-well plate in a volume of 200 μL. Association of samples to either ENL- or uncoated reference sensors was measured over 300 s and dissociation over 300 s with baseline measurements (buffer only) for 300 s. All assays were run with continuous 1000 rpm shaking. Data were analyzed using the OctetRED data analysis software with reference subtraction in which reference uncoated sensors and reference samples were subtracted. Then, global kinetic fit was performed for all sonogram curves with a 1:1 model to get KD values.

MOLM-13 cells = test: Cell toxicity assay (CCK-8), MOLM-13; type: cell-based
Method: (§1) Approximately 1 × 10^4 JURKAT, MOLM-13, MV4-11 and HEK293T cells in RPMI 1640 (no phenol red) (100 μL) were added to a 96-well plate and treated with DMSO or a compound at indicated concentrations for 72 h or 8 days. Cell viability was measured using the CCK-8 kit (Abcam, ab228554) according to the manufacturer’s instructions.

MV4-11 cells = test: Cell toxicity assay (CCK-8), MV4-11; type: cell-based; conditions: Homo sapiens, MV4-11; 72 h treatment (superscript a)
Method: as §1

Row | SMILES | tolerability / body weight loss ([1]; 200 mg/kg PO QD) | Kd (ENL YEATS domain) [nM] | IC50 (MOLM-13 cells; 8 day treatment, n = 3, read-out: CC50 MOLM-13 (Cellular IC50, 8-days incubation)) [µM] | CC50 (MOLM-13 cells; Homo sapiens, MOLM-13, 72 h treatment (superscript a)) [µM] | tolerability / body weight loss ([1]; 400 mg/kg PO QD) | CC50 (MV4-11 cells) [µM]
1 | CC(C)[C@H]1CCN1Cc1cc2cnc(NC(=O)c3ccc4nncn4c3)cc2[nH]1 [SR-C-107 (R), (R)-N-(2-((2-Isopropylazetidin-1-yl)methyl)-1H-pyrrolo[3,2-c]pyridin-6-yl)-[1,2,4]triazolo[4,3-a]pyridine-6-carboxamide] | no significant body weight loss observed | 144 | – | – | – | –
2 | CC(C)C1CCN1Cc1ccc(CNC(=O)c2ccc3nncn3c2)cc1 (stereo not shown) [inhibitor 13] | no significant body weight loss observed | – | 6.01 ± 0.83 | 8.2 | without significant body weight loss until day 15 | 9.15
